From PubChem BioAssay (NCI)
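Each compound was tested at five concentrations against cells in 96-well plates for 48 hours. Here, GI50 denotes the concentration required for 50% inhibition of growth. The concentration for full growth arrest is given as TGI.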

Assays:
Assay in all cases: NCI-60 cell line screen, 48 h
EKVX NSCLC = system: EKVX NSCLC
SK-MEL-5 melanoma = system: SK-MEL-5 melanoma
HL-60(TB) leukemia = system: HL-60(TB) leukemia
T-47D breast = system: T-47D breast
SN12C renal = system: SN12C renal
UO-31 renal = system: UO-31 renal
SNB-19 CNS = system: SNB-19 CNS
MALME-3M melanoma = system: MALME-3M melanoma
MDA-MB-435 = system: MDA-MB-435
RXF 393 renal = system: RXF 393 renal
CAKI-1 renal = system: CAKI-1 renal
NCI-H23 lung = system: NCI-H23 lung
NCI-H522 lung = system: NCI-H522 lung
UACC-62 melanoma = system: UACC-62 melanoma
SK-MEL-28 melanoma = system: SK-MEL-28 melanoma
HOP-62 NSCLC = system: HOP-62 NSCLC
CCRF-CEM leukemia = system: CCRF-CEM leukemia
786-0 renal = system: 786-0 renal
SNB-75 CNS = system: SNB-75 CNS
HS 578T breast = system: HS 578T breast
SK-MEL-2 melanoma = system: SK-MEL-2 melanoma
RPMI-8226 leukemia = system: RPMI-8226 leukemia
MDA-MB-468 breast = system: MDA-MB-468 breast
A498 renal = system: A498 renal
NCI-H226 lung = system: NCI-H226 lung
DU-145 prostate = system: DU-145 prostate
HCC-2998 colon = system: HCC-2998 colon
OVCAR-5 ovarian = system: OVCAR-5 ovarian
K-562 leukemia = system: K-562 leukemia
A549 NSCLC = system: A549 NSCLC
LOX IMVI melanoma = system: LOX IMVI melanoma
SK-OV-3 ovarian = system: SK-OV-3 ovarian
OVCAR-3 ovarian = system: OVCAR-3 ovarian
MOLT-4 leukemia = system: MOLT-4 leukemia
SF-539 CNS = system: SF-539 CNS
HCT-116 colon = system: HCT-116 colon
UACC-257 melanoma = system: UACC-257 melanoma
SF-268 CNS = system: SF-268 CNS
HCT-15 colon = system: HCT-15 colon
OVCAR-8 ovarian = system: OVCAR-8 ovarian
ACHN renal = system: ACHN renal
MCF7 breast = system: MCF7 breast
HT29 colon = system: HT29 colon
IGROV1 ovarian = system: IGROV1 ovarian
MDA-MB-231 breast = system: MDA-MB-231 breast
TK-10 renal = system: TK-10 renal
COLO 205 colon = system: COLO 205 colon
HOP-92 NSCLC = system: HOP-92 NSCLC
PC-3 prostate = system: PC-3 prostate
KM12 colon = system: KM12 colon
SF-295 CNS = system: SF-295 CNS
M14 melanoma = system: M14 melanoma
BT-549 breast = system: BT-549 breast

Work on `Cn1cc(-c2cc3nc(-c4cn(C)c5ncc(Br)cc45)cc(N)n3n2)c2cc(Cl)ccc21` yielded a GI50 (EKVX NSCLC) of 1.48 µM, a TGI (EKVX NSCLC) of 3.34 µM and a GI50 (SK-MEL-5 melanoma) of 1.82 µM. It also gave a TGI (SK-MEL-5 melanoma) of 4 µM, a GI50 (HL-60(TB) leukemia) of 1.99 µM and a TGI (HL-60(TB) leukemia) of 5.06 µM. It also gave a GI50 (T-47D breast) of 1.58 µM, a TGI (T-47D breast) of 3.63 µM and a GI50 (SN12C renal) of 1.72 µM. It also gave a TGI (SN12C renal) of 3.44 µM, a GI50 (UO-31 renal) of 1.54 µM and a TGI (UO-31 renal) of 3.33 µM. It also gave a GI50 (SNB-19 CNS) of 1.89 µM, a TGI (SNB-19 CNS) of 3.83 µM and a GI50 (MALME-3M melanoma) of 1.74 µM. The TGI (MALME-3M melanoma) was 3.2 µM, the GI50 (MDA-MB-435) was 1.76 µM and the TGI (MDA-MB-435) was 3.38 µM. For the same compound, the GI50 (RXF 393 renal) was 1.82 µM, the TGI (RXF 393 renal) was 3.47 µM and the GI50 (CAKI-1 renal) was 1.45 µM. It also gave a TGI (CAKI-1 renal) of 2.95 µM, a GI50 (NCI-H23 lung) of 1.91 µM and a TGI (NCI-H23 lung) of 3.98 µM. It also gave a GI50 (NCI-H522 lung) of 1.87 µM, a TGI (NCI-H522 lung) of 3.84 µM and a GI50 (UACC-62 melanoma) of 1.47 µM. It also gave a TGI (UACC-62 melanoma) of 2.85 µM, a GI50 (SK-MEL-28 melanoma) of 1.72 µM and a TGI (SK-MEL-28 melanoma) of 3.23 µM. For the same compound, the GI50 (HOP-62 NSCLC) was 1.72 µM, the TGI (HOP-62 NSCLC) was 3.48 µM and the GI50 (CCRF-CEM leukemia) was 2.87 µM. For the same compound, the TGI (CCRF-CEM leukemia) was 9.95 µM, the GI50 (786-0 renal) was 1.76 µM and the TGI (786-0 renal) was 3.2 µM. The GI50 (SNB-75 CNS) was 1.75 µM, the TGI (SNB-75 CNS) was 4.03 µM and the GI50 (HS 578T breast) was 1.89 µM. The TGI (HS 578T breast) was 4.48 µM, the GI50 (SK-MEL-2 melanoma) was 1.93 µM and the TGI (SK-MEL-2 melanoma) was 4.2 µM. The GI50 (RPMI-8226 leukemia) was 2.93 µM, the TGI (RPMI-8226 leukemia) was 9.38 µM and the GI50 (MDA-MB-468 breast) was 1.32 µM. For the same compound, the TGI (MDA-MB-468 breast) was 2.68 µM, the GI50 (A498 renal) was 7.39 µM and the TGI (A498 renal) was 24 µM. For the same compound, the GI50 (NCI-H226 lung) was 1.99 µM, the TGI (NCI-H226 lung) was 4.42 µM and the GI50 (DU-145 prostate) was 1.78 µM. The TGI (DU-145 prostate) was 3.61 µM, the GI50 (HCC-2998 colon) was 1.74 µM and the TGI (HCC-2998 colon) was 3.17 µM. For the same compound, the GI50 (OVCAR-5 ovarian) was 1.52 µM, the TGI (OVCAR-5 ovarian) was 3.39 µM and the GI50 (K-562 leukemia) was 1.84 µM. It also gave a TGI (K-562 leukemia) of 5.5 µM, a GI50 (A549 NSCLC) of 1.62 µM and a TGI (A549 NSCLC) of 3.54 µM. The GI50 (LOX IMVI melanoma) was 1.61 µM, the TGI (LOX IMVI melanoma) was 2.96 µM and the GI50 (SK-OV-3 ovarian) was 13.7 µM. It also gave a TGI (SK-OV-3 ovarian) of 29.1 µM, a GI50 (OVCAR-3 ovarian) of 1.63 µM and a TGI (OVCAR-3 ovarian) of 3.25 µM. The GI50 (MOLT-4 leukemia) was 1.71 µM, the TGI (MOLT-4 leukemia) was 5.07 µM and the GI50 (SF-539 CNS) was 1.51 µM. The TGI (SF-539 CNS) was 2.88 µM, the GI50 (HCT-116 colon) was 1.55 µM and the TGI (HCT-116 colon) was 2.96 µM. It also gave a GI50 (UACC-257 melanoma) of 1.71 µM, a TGI (UACC-257 melanoma) of 3.56 µM and a GI50 (SF-268 CNS) of 2.11 µM. The TGI (SF-268 CNS) was 5.11 µM, the GI50 (HCT-15 colon) was 1.57 µM and the TGI (HCT-15 colon) was 3.16 µM. It also gave a GI50 (OVCAR-8 ovarian) of 2.02 µM, a TGI (OVCAR-8 ovarian) of 4.96 µM and a GI50 (ACHN renal) of 1.55 µM. The TGI (ACHN renal) was 2.88 µM, the GI50 (MCF7 breast) was 1.64 µM and the TGI (MCF7 breast) was 3.25 µM. It also gave a GI50 (HT29 colon) of 1.91 µM, a TGI (HT29 colon) of 3.62 µM and a GI50 (IGROV1 ovarian) of 1.71 µM. The TGI (IGROV1 ovarian) was 3.38 µM, the GI50 (MDA-MB-231 breast) was 1.43 µM and the TGI (MDA-MB-231 breast) was 2.89 µM. For the same compound, the GI50 (TK-10 renal) was 1.6 µM, the TGI (TK-10 renal) was 3.13 µM and the GI50 (COLO 205 colon) was 2.56 µM. For the same compound, the TGI (COLO 205 colon) was 6.65 µM, the GI50 (HOP-92 NSCLC) was 1.86 µM and the TGI (HOP-92 NSCLC) was 3.74 µM. For the same compound, the GI50 (PC-3 prostate) was 1.76 µM, the TGI (PC-3 prostate) was 4.09 µM and the GI50 (KM12 colon) was 1.49 µM. For the same compound, the TGI (KM12 colon) was 3.96 µM, the GI50 (SF-295 CNS) was 1.75 µM and the TGI (SF-295 CNS) was 3.43 µM. For the same compound, the GI50 (M14 melanoma) was 1.71 µM, the TGI (M14 melanoma) was 3.25 µM and the GI50 (BT-549 breast) was 1.91 µM. It also gave a TGI (BT-549 breast) of 4.24 µM.
